Test: in vitro
Format: cell-based, Chinese hamster
Settings: Chinese hamster
Experimental: Human HCT-116 colon carcinoma cells (CCL-247) were obtained from the American Type Culture Collection (ATCC) and Chinese hamster ovary CHO-K1 cells (ACC-110) were obtained from the German Collection of Microorganisms and Cell Cultures (DSMZ). Both cell lines were cultured under the conditions recommended by the respective depositor. Primary HUVEC (human umbilical vein endothelial cells; single donor) were purchased from PromoCell (Heidelberg, Germany) and cultured in Endothelial Cell Growth Medium (PromoCell) containing the following supplements: 2% FCS, 0.4% ECGS, 0.1 ng/ml EGF, 1 ng/ml bFGF, 90 μg/ml heparin, 1 μg/ml hydrocortisone.
Cells were seeded at 6×10^3 cells per well of 96-well plates (Corning CellBind®) in complete medium (180 μl) and directly treated with cystobactamides dissolved in methanol in a serial dilution. Compound were tested in duplicate for 5 d, as well as the internal solvent control. After 5 d incubation, 5 mg/ml MTT in PBS (20 μL) was added per well and it was further incubated for 2 h at 37° C.[7] The medium was then discarded and cells were washed with PBS (100 μl) before adding 2-propanol/10N HCl (250:1, v/v; 100 μl) in order to dissolve formazan granules. The absorbance at 570 nm was measured using a microplate reader (EL808, Bio-Tek Instruments Inc.).

CC(C)Oc1cc(C(=O)O)ccc1NC(=O)c1ccc(NC(=O)c2ccc(N)cc2)c(OC(C)C)c1O [cystobactamide C, Cystobactamide C]
GI50 at 5 d: ~111 µM
